The values below come from patent US7053219B2, “Isoxazolopyridone derivatives and their use” (Banyu Pharmaceutical Co. Ltd., priority 2001, dated 2006).

What is called IC50 is the point on the concentration scale where inhibition reaches its midpoint.

This test deals with T1, rat metabotropic glutamic acid receptor 7a (Rattus norvegicus, UniProt P35400).
T1 construct: expressed in transfected cells
In words: Metabotropic glutamic acid receptor-antagonistic effect (Test Method 1, [Ca2+]i by FLIPR). It counts as cell-based. Conditions: CHO cells stably expressing rat metabotropic glutamic acid receptor 7a and Gα15, agonist 0.5 mM L-AP4, test compound given 5 minutes before agonist, [Ca2+]i with Fluo-3AM. The source says:
(Test Method 1) Metabotropic Glutamic Acid Receptor-Antagonistic Effect:
Using LIPOFECTAMINE (by Gibco BRL), CHO cells were transfected with a CDNA of rat metabotropic glutamic acid receptor 7a, which is described in J. Biol. Chem., N. Okamoto et al., Vol. 269, pp. 1231–1236, 1994, to give a cell strain capable of stably expressing rat metabotropic glutamic acid receptor 7a. The metabotropic glutamic acid receptor 7a-transfected CHO cells were further transfected with a Gα15 cDNA, which is describedin J. Biol. Chem., S. Offermanns, M. I. Simon, Vol. 270, pp. 15175–15180, 1995, to give a cell strain capable of stably expressing rat metabotropic glutamic acid receptor 7a and Gα15. The CHO cells capable of stably expressing metabotropic glutamic acid receptor 7a and Gα15 were incubated along with Fluo-3AM (final concentration 4 μM) at 37° C. for 1 hour, and then washed 4 times with an assay buffer (1×Hanks' salt with 2.5 mM probenecid and 20 mM HEPES (N-2-hydroxyethylpiperazine-N′-2-ethanesulfonic acid), and the resulting cells were assayed for [Ca^2+]i. For the determination of [Ca^2+]i, used was a fluorimetric imaging plate reader (FLIPR by Molecular Device). Concretely, using an agonist, 0.5 mM L-AP4, the capacity of the antagonistic substance was measured.
The Hanks' salt was prepared by 10-fold diluting a Hanks' balanced solution (Gibuco BRL 14065-056 10×). […]

T1 sequence (P35400 35-915): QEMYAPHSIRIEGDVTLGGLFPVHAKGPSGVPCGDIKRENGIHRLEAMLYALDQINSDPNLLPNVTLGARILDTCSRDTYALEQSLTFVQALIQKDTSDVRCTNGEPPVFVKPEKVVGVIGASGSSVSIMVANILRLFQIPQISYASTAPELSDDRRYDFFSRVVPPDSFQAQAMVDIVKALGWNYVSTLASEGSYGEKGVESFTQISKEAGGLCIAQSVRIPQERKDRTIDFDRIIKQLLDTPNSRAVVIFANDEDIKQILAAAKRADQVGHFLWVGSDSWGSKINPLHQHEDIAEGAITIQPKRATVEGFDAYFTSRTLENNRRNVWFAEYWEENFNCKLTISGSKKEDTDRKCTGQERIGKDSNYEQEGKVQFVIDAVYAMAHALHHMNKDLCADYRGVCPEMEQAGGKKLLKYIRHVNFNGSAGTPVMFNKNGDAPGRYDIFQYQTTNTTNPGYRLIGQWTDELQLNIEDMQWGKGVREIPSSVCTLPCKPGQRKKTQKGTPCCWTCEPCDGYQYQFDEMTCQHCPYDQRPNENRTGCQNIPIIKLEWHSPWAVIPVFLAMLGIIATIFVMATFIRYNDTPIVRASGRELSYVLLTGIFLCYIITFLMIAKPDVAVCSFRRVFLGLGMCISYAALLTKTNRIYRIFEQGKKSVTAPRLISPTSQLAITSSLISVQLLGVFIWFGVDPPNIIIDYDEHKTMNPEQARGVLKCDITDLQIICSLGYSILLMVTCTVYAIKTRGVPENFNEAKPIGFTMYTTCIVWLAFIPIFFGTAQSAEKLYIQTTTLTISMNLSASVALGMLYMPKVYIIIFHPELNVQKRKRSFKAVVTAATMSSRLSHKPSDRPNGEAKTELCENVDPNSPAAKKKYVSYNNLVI

`COc1ccccc1-c1noc2cc(-c3ccccc3)n(C)c(=O)c12` [Production Example 8, 5-methyl-3-(2-methoxyphenyl)-6-phenylisoxazolo[4,5c]pyridin-4(5H)-one]: the IC50 came to 7.65 nM. For `Cn1c(-c2cccnc2)cc2onc(-c3ccncc3)c2c1=O` [Production Example 32, 5-methyl-6-pyridin-3-yl-3-pyridin-4-yl-isoxazolo[4,5-c]-pyridin-4(5H)-one], the IC50 was 10.4 nM.
